# ChEMBL document CHEMBL2016509, “Design, synthesis and cytotoxic activities of novel hybrid compounds between 2-phenylbenzofuran and imidazole” (Bioorg Med Chem Lett, 2012)
# How the values were obtained:
# [1] = test system: HL-60; assay: Cytotoxicity against human HL60 cells after 48 hrs by MTT assay; format: functional, cell-based; conditions: HL-60, 48 h
# [2] = test system: SMMC-7721; assay: Cytotoxicity against human SMMC7721 cells after 48 hrs by MTT assay; format: functional, cell-based; conditions: SMMC-7721, 48 h
# [3] = test system: SW480; assay: Cytotoxicity against human SW480 cells after 48 hrs by MTT assay; format: functional, cell-based; conditions: SW480, 48 h
# [4] = test system: A549; assay: Cytotoxicity against human A549 cells after 48 hrs by MTT assay; format: functional, cell-based; conditions: A549, 48 h
# [5] = test system: MCF7; assay: Cytotoxicity against human MCF7 cells after 48 hrs by MTT assay; format: functional, cell-based; conditions: MCF7, 48 h
# [6] = test system: SMMC-7721; assay: Ratio of DDP IC50 to compound IC50 for human SMMC7721 cells; format: functional
smiles,measurement,setting,value
O=C(C[n+]1ccn(-c2ccc(-c3cc4ccccc4o3)cc2)c1)c1ccc(Br)cc1,IC50,[1],3.15 µM
same,IC50,[2],3.39 µM
same,IC50,[3],2.85 µM
same,IC50,[4],8.46 µM
same,IC50,[5],2.84 µM
C=CC[n+]1ccn(-c2ccc(-c3cc4ccccc4o3)cc2)c1,IC50,[1],14.5 µM
same,IC50,[2],27 µM
same,IC50,[3],> 40 µM
same,IC50,[4],33.5 µM
same,IC50,[5],13.7 µM
COc1ccc(C(=O)C[n+]2ccn(-c3ccc(-c4cc5ccccc5o4)cc3)c2)cc1,IC50,[1],2.26 µM
same,IC50,[2],3.71 µM
same,IC50,[3],6.93 µM
same,IC50,[4],9.79 µM
same,IC50,[5],11.3 µM
O=C(C[n+]1ccn(-c2ccc(-c3cc4ccccc4o3)cc2)c1)c1ccc(F)cc1,IC50,[1],12.3 µM
same,IC50,[2],13.5 µM
same,IC50,[3],16.8 µM
same,IC50,[4],19.7 µM
same,IC50,[5],16.7 µM
Brc1ccccc1C[n+]1ccn(-c2ccc(-c3cc4ccccc4o3)cc2)c1,IC50,[1],1.97 µM
same,IC50,[2],4.38 µM
same,IC50,[3],12.7 µM
same,IC50,[4],9.77 µM
same,IC50,[5],14.3 µM
O=C(c1ccccc1)C(c1ccccc1)[n+]1ccn(-c2ccc(-c3cc4ccccc4o3)cc2)c1 (stereo unspecified),IC50,[1],2.7 µM
same,IC50,[2],3.31 µM
same,IC50,[3],6.93 µM
same,IC50,[4],6.79 µM
same,IC50,[5],6.9 µM
c1ccc(C[n+]2ccn(-c3ccc(-c4cc5ccccc5o4)cc3)c2)cc1,IC50,[1],5.37 µM
same,IC50,[2],15.1 µM
same,IC50,[3],19.9 µM
same,IC50,[4],25.4 µM
same,IC50,[5],26.9 µM
O=C(C[n+]1ccn(-c2ccc(-c3cc4ccccc4o3)cc2)c1)c1ccccc1,IC50,[1],2.61 µM
same,IC50,[2],3.71 µM
same,IC50,[3],10.3 µM
same,IC50,[4],12.9 µM
same,IC50,[5],11.9 µM
CCCC[n+]1ccn(-c2ccc(-c3cc4ccccc4o3)cc2)c1,IC50,[1],11.8 µM
same,IC50,[2],12.7 µM
same,IC50,[3],> 40 µM
same,IC50,[4],21.7 µM
same,IC50,[5],31.4 µM
c1ccc2oc(-c3ccc(-n4ccnc4)cc3)cc2c1,IC50,[1],> 40 µM
same,IC50,[2],> 40 µM
same,IC50,[3],> 40 µM
same,IC50,[4],> 40 µM
same,IC50,[5],> 40 µM
O=C(C[n+]1ccn(-c2ccc(-c3cc4ccccc4o3)cc2)c1)c1ccc(O)cc1,IC50,[1],> 40 µM
same,IC50,[2],> 40 µM
same,IC50,[3],> 40 µM
same,IC50,[4],> 40 µM
same,IC50,[5],> 40 µM
O=C(C[n+]1ccn(-c2ccc(-c3cc4ccccc4o3)cc2)c1)c1ccc2ccccc2c1.[Br-],Ratio IC50,[6],5.4
same,IC50,[1],2.49 µM
same,IC50,[2],1.65 µM
same,IC50,[3],3.38 µM
same,IC50,[4],10.9 µM
same,IC50,[5],5.87 µM
